Test results published in patent US8133889B2, “Dihydroindolone compounds, a process for their preparation and pharmaceutical compositions containing them” (Les Laboratoires Servier, priority 2009, dated 2012).

What was measured:
[1] = test system: A549 (human non-small cell lung carcinoma) cells; test: Inhibition of the migration of A549 cells: scratch assay; format: cell-based; conditions: at 30 nM; A549 cells exposed 38 hours; 40 ng/ml HGF
Procedure: Cells from the A549 (human non-small cell lung carcinoma) line are cultured in an incubator at 37° C. in the presence of 5% CO2 in RPMI 1640 medium containing 10% foetal calf serum, 40 ng/ml HGF (hepatocyte growth factor), 2 mM glutamine, 50 units/ml penicillin, 50 μg/ml streptomycin and 10 mM Hepes buffer, pH=7.4. For the migration test, the A549 cells are transferred to 96-well plates (50,000 cells per well) and cultured for 24 hours to obtain cells at confluence. A one-millimetre thick scratch is made in the cell layer, and the cells are exposed to the compounds under test for 38 hours. The cell cultures are then photographed, and filling of the scratch as a result of migration of the cells is assessed.

[2] = test system: human glioblastoma tumour U87-MG; test: Inhibition of growth of the tumour U87-MG grafted subcutaneously in mice; format: in vivo, female Nude BalbC mouse; conditions: oral route; for inhibition of growth: Day 35
Procedure: The human glioblastoma tumour U87-MG was grafted subcutaneously into the female Nude BalbC mouse in an amount of 10^6 cells. The tumours were then randomised into groups of eight mice once the tumour volume had reached 200 mm^3. Daily treatment (6.25, 12.5, 25 and 50 mg/kg) was administered by the oral route (vehicle=water) over a period of 17 days except for the weekends. The tumour volumes were measured twice a week using a sliding calliper. The inhibition of growth found after administration of the compounds according to the invention is statistically significant (two-factor ANOVA, with measurements repeated over time, followed by a DUNETT's test) at all doses tested between Day 21 and Day 35 (date for ethical sacrifice of the mice in the control group in conformity with ethical rules). […] Regression of the order of 70% is observed at a dose of 50 mg/kg.

Row | Structure (SMILES) | melting point | also measured
1 | CC(=C1C(=O)Nc2ccc(CN3C(=O)CSC3=O)cc21)c1cc(CN2CCOCC2)c[nH]1.Cl | 225 °C | –
2 | Cl.O=C1Nc2ccc(CN3CCOC3=O)cc2C1=Cc1ccc(CN2CCOCC2)[nH]1 | 195 °C | –
3 | CC(=C1C(=O)Nc2ccc(CN3CCOC3=O)cc21)c1cc(CN2CCOCC2)c[nH]1.Cl | 212 °C | –
4 | Cl.O=C1Nc2ccc(CN3CCSC3=O)cc2C1=Cc1cc(CN2CCOCC2)c[nH]1 | 244 °C | –
5 | Cl.O=C1Nc2ccc(CN3C(=O)COC3=O)cc2C1=Cc1cc(CN2CCOCC2)c[nH]1 | 216 °C | –
6 | Cl.O=C1Nc2ccc(CN3CCOC3=O)cc2C1=Cc1cc(CN2CCCC2)c[nH]1 | 204 °C | –
7 | Cl.O=C1Nc2ccc(CN3CCOC3=O)cc2C1=Cc1cc(CN2CCCCC2)c[nH]1 | 256 °C | –
8 | CCN(CC)Cc1c[nH]c(C=C2C(=O)Nc3ccc(CN4CCOC4=O)cc32)c1.Cl | 192 °C | –
9 | Cl.O=C1Nc2ccc(CN3C(=O)[C@H]4C[C@H]4C3=O)cc2C1=Cc1cc(CN2CCCCC2)c[nH]1 | 198 °C | –
10 | Cl.O=C1Nc2ccc(CN3CCOC3=O)cc2C1=Cc1cc(CN2C[C@H]3C[C@H]3C2)c[nH]1 | 179 °C | –
11 | Cc1[nH]c(C=C2C(=O)Nc3ccc(CN4CCOC4=O)cc32)c(C)c1CN1C[C@H]2CCC[C@H]2C1.Cl | 204 °C | –
12 | CC(=C1C(=O)Nc2ccc(CN3C(=O)COC3=O)cc21)c1cc(CN2CCOCC2)c[nH]1.Cl | 220 °C | –
13 | Cl.O=C1Nc2ccc(CN3C(=O)CCC3=O)cc2C1=Cc1cc(CN2CCOCC2)c[nH]1 | 212 °C | –
14 | Cl.O=C1Nc2ccc(CN3CCOC3=O)cc2C1=Cc1c[nH]cc1CN1CCOCC1 | 210 °C | –
15 | Cl.O=C1Nc2ccc(CCN3C(=O)CSC3=O)cc2C1=Cc1cc(CN2CCOCC2)c[nH]1 | 289 °C (dec.) | –
16 | CC1(C)OC(=O)N(Cc2ccc3c(c2)C(=Cc2cc(CN4CCOCC4)c[nH]2)C(=O)N3)C1=O.Cl | 191 °C | –
17 | Cl.O=C1Nc2ccc(CN3C(=O)CSC3=O)cc2C1=Cc1cc(CN2CCOCC2)c[nH]1 [Example 1, 3-[(3-{[4-(4-Morpholinylmethyl)-1H-pyrrol-2-yl]methylene}-2-oxo-2,3-dihydro-1H-indol-5-yl)methyl]-1,3-thiazolidine-2,4-dione hydrochloride] | – | inhibition of migration (filling of the scratch) [1]: total inhibition; inhibition of growth ([2]; 6.25 mg/kg daily): 102%; inhibition of growth ([2]; 12.5 mg/kg daily): 84%; inhibition of growth ([2]; 25 mg/kg daily): 98%; regression ([2]; 50 mg/kg daily): ~70%
18 | O=C1Nc2ccc(CN3CCOC3=O)cc2C1=Cc1[nH]ccc1CN1CCOCC1 [Example 21, 3-(3-Morpholin-4-ylmethyl-1H-pyrrol-2-ylmethylene)-5-(2-oxo-oxazolidin-3-ylmethyl)-1,3-dihydro-indol-2-one] | 192 °C | –
